Data as given in article PMC8068036, “Synthesis of New Biscoumarin Derivatives, In Vitro Cholinesterase Inhibition, Molecular Modelling and Antiproliferative Effect in A549 Human Lung Carcinoma Cells” (International Journal of Molecular Sciences, 2021).
Like-named read-outs stand apart in the source and are kept apart here.

Columns and labels:
A549 cancer cell line = settings: ref 55 (Huang et al.); cited from earlier work
[1] = test system: human umbilical vein endothelial cell (HUVEC) cell line; settings: ref 55 (Huang et al.); cited from earlier work
A549 cells [2] = assay: Mitotic activity (Ki67 index) by immunolabelling and confocal microscopy; assay type: cell-based, human; settings: 24 h, vs control
Method: The studied biscoumarin derivatives were added to cells seeded on 12-well μ-Chamber slides for 24 h. After cultivation with the derivatives, the samples (both the control without the derivatives and experimental groups) were washed with a 0.1 M PBS solution buffer to remove all non-cell-absorbed derivative residues and fixed with 4% paraformaldehyde for 20 min at RT. Alternatively, cells were incubated with Mitotracker Red (0.5 µM; Thermo Fisher Scientific, Waltham, MA, USA) for 30 min at 37 °C, washed with 0.1 M PBS, and fixed with 4% paraformaldehyde for 20 min at RT. For the quantification of proliferative activity and programmed cell death, samples were incubated overnight at 4 °C with the mouse anti-Ki67 antibody (NCL-L-Ki67-MM1, 1:100, Leica Biosystems, Wetzlar, Germany) and rabbit anti-cleaved PARP (cat. no. 94885, 1:100, Cell Signaling, Danvers, MA, USA) diluted in 0.1 M PBS containing 1% normal donkey serum (Jackson Immunoresearch, Cambridgeshire, Great Britain) and 0.3% Triton-X 100. […]
All samples were evaluated using a Leica TCS SP5X confocal system (Leica Microsystems, Mannheim, Germany). The biscoumarin derivatives were visualized in cells using a 405 nm laser, and the fluorescence was captured in the range of 420–480 nm with identical exposure parameters for all samples. […] Microphotographs were taken with a 40× objective lens (NA = 0.75; voxel size 223 × 223 nm) and a 63× oil lens (NA = 1.4; voxel size 171 × 171 nm); the images were captured and analyzed using LAS AF software (Leica Microsystems, Wetzlar, Germany).
The proliferative activity of cells incubated with the studied derivatives was expressed as a Ki67 index. In all samples (n = 3 samples per each experimental group), the number of Ki67^+ nuclei was calculated in groups of 100 randomly selected cells. […]

A549 cells [3] = assay: MTT assay, A549; assay type: cell-based, human; settings: for Metabolic activity of A549 cells (in words): 10 to 100 μM, 24 and 48 h; for IC50: Homo sapiens
Method: (§1) Human lung carcinoma cell line A549 and CCD-18Co colon fibroblasts were purchased from the American Type Culture Collection (ATCC, Rockville, MD, USA). The A549 cells were cultured in a complete RPMI-1640 medium (Sigma-Aldrich, St. Louis, MO, USA), and CCD-18Co cells were cultured in an MEM medium (PAN-Biotech GmbH, Aidenbach, Germany). The media were supplemented with 10% fetal bovine serum (FBS; Biosera, Nuaille, France) and antibiotics (1% Antibiotic-Antimycotic 100× and 50 × 10^−3 g l^−1 gentamicin; Biosera) at 37 °C, 95% humidity, and 5% CO2.
(§2) Prior to the selected treatments, cells were seeded on 12-well μ-Chamber slides (ibidi GmbH, Martinsried, Germany) and 6 and/or 96-well plates (TPP, Trasadingen, Switzerland) and left to settle for 24 h. The biscoumarin derivative solutions (at concentrations ranging from 10–100 µM) were then added to cells for 24 or 48 h, and analysis was subsequently performed.
(§3) MTT assays were performed in order to evaluate changes in the metabolic activity of cells that had occurred as a consequence of treatment with the biscoumarin derivatives. A549 cells (15 × 10^3 cells/cm^2) and CCD-18Co ([…]) were seeded in 96-well microplates. The cells were treated for 24 and 48 h with different concentrations (10, 25, 35, 50, 65, 75, and 100 µM) of the derivatives. After the treatment, the MTT (3-(4,5-dimethylthiazol-2-yl)-2,5-diphenyltertrazolium bromide) solution in PBS (5 mg mL^−1) was added to each well. […]. The absorbance of formazan (λ = 584 nm) was measured using a BMG FLUOstar Optima spectrometer (BMG Labtech GmbH, Offenburg, Germany). The results were evaluated as percentages of the absorbance of the untreated control. Results are presented as the average percentage of cells from three independent experiments. IC50 values for the derivatives were extrapolated from a sigmoidal fit (dose–response curve) to the metabolic activity data using OriginPro 8.5.0 SR1 (OriginLab Corp., Northampton, MA, USA).

hBChE (human plasma) = target: T1, hBChE (human plasma) (Homo sapiens, UniProt P06276); assay: biochemical; assay type: biochemical; settings: human plasma BChE, mean of at least three experiments; for IC50: read-out: IC50 ± S.E.M. hBChE
T1 construct: Human plasma was used as a source of BChE; from tissue; host or cells: human plasma from heparinized blood
Method: (§4) Human recombinant AChE (EC 3.1.1.7), 5,5′-dithiobis(2-nitrobenzoic acid) (Ellman′s reagent, DTNB), phosphate buffer (PB, 0.1 M, pH 7.4), and acetylthiocholine (ATC) and butyrylthiocholine (BTC), were purchased from Sigma-Aldrich, Prague, Czech Republic. Human plasma was used as a source of BChE and was prepared from heparinized human blood. The blood was centrifuged for 20 min (4 °C, 2300× g) on a Hettich Universal 320R centrifuge. The plasma was separated and stored at […]. Polystyrene Nunc 96-well microplates with a flat bottom shape (ThermoFisher Scientific, Waltham, MA, USA) were used for measuring purposes.
(§5) All of the assays were carried out in a 0.1 M phosphate buffer, pH 7.4. The assay medium (100 µL) consisted of 40 µL of 0.1 M phosphate buffer (pH 7.4), 20 µL of 0.01 M DTNB, 10 µL of the enzyme, and 20 µL of 0.01 M substrate ATC/BTC iodide solution).
(§6) The tested compounds were preincubated for 5 min prior to use. The reaction was initiated immediately upon addition of 20 µL of the substrate. […] Each concentration was assayed in triplicate. Software GraphPad Prism 5 (San Diego, CA, USA) was used in the evaluation of the statistical data.

human recombinant AChE = target: T2, human recombinant AChE (Homo sapiens, UniProt P22303); assay: biochemical; assay type: biochemical; settings: mean of at least three experiments; for IC50: read-out: IC50 ± S.E.M. hAChE
T2 construct: purchased Sigma-Aldrich, Prague, Czech Republic
Method: as §4, §5, §6

in vitro = settings: for Papp: PAMPA; for Papp / Pe ± S.E.M.: pH 7.4; for CNS Predicted Availability: classification from PAMPA-BBB Pe; for Pe ± S.E.M.: PAMPA-BBB
Method: The parallel artificial membrane permeability assay (PAMPA) is used as a non-cell-based in vitro assay to predict BBB penetration and is carried out in a coated 96-well membrane filter. In our assays, the filter membrane of the donor plate was coated with PBL (Polar Brain Lipid, Avanti, Denver, CO, USA) in dodecane (4 µL of 20 mg mL^−1 PBL in dodecane), and the acceptor well was filled with 300 µL of phosphate buffered saline (PBS) (pH 7.4; VA). The tested compounds were first dissolved in DMSO, and the resulting mixture was diluted with PBS (pH 7.4) to reach the final concentration (40–100 µM) in the donor well. […] Three hundred microliters of the donor solution (VD) were added to the donor wells, and the donor filter plate was carefully placed onto the acceptor plate to ensure that the coated membrane was “in contact” with both the donor solution and the acceptor buffer. The test compound diffused from the donor well through the polar brain lipid membrane (area = 0.28 cm^2) to the acceptor well. The concentration of the tested compound in both the donor and acceptor wells was assessed after 3, 4, 5, and 6 h of incubation, respectively, in quadruplicate using a UV plate reader Synergy HT (Biotek, Winooski, VT, USA) at the maximum absorption wavelength of each compound. Additionally, solutions at the theoretical equilibrium of the given compound (i.e., the theoretical concentration if the donor and acceptor compartment were simply combined) were also prepared.

A549 cells [4] = assay: Cell cycle analysis (flow cytometry, PI); assay type: cell-based, human; settings: 35 and 65 µM, 24 h
Method: For flow cytometric analysis of the cell cycle distribution, floating and adherent cells were harvested together 24 h after treatment with the derivatives (35 and 65 µM), washed in cold PBS, fixed in cold 70% ethanol, and stored overnight at −20 °C. Prior to analysis, the cells were washed twice in PBS, resuspended in a staining solution (0.1% Triton X-100, 0.137 g L^−1 ribonuclease A and 0.02 g L^−1 propidium iodide—PI), and incubated in dark conditions at RT for 30 min. The DNA content was analyzed using a BD FACSCalibur flow cytometer (Becton Dickinson, San Jose, CA, USA) with a 488 nm argon-ion excitation laser, and fluorescence was detected using a 585/42 nm band-pass filter (FL-2). ModFit 3.0 software (Verity Software House, Topsham, ME, USA) was used to generate DNA content frequency histograms and to quantify the percentage of cells in the individual cell cycle phases. The results are presented as the average ratio of cells in the individual phase to all cells from three independent experiments.

CCD-18Co fibroblasts = assay: MTT assay, CCD-18Co; assay type: cell-based; settings: for IC50: Homo sapiens, CCD-18Co
Method: as §1, §2, §3

[5] = A549, 24 h, read-out: IC50 A549 24 h
[6] = A549, read-out: IC50 A549 48 h, 48 h

T2 sequence (P22303 32-614): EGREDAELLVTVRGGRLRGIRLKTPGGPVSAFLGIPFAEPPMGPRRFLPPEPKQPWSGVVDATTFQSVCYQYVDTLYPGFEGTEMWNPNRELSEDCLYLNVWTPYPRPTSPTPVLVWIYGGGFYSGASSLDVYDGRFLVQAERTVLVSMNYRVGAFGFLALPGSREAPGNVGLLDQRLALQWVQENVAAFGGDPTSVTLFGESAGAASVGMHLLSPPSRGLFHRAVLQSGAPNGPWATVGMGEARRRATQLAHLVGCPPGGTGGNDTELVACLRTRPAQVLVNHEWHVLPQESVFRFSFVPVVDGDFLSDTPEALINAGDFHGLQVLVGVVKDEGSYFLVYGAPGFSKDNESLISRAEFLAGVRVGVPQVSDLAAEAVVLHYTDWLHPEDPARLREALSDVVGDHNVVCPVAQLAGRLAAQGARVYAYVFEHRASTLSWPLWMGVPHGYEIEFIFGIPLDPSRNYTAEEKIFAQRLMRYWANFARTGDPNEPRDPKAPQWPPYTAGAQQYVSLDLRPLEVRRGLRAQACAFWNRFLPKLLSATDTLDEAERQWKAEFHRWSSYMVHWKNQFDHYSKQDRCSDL
T1 sequence (P06276 29-602): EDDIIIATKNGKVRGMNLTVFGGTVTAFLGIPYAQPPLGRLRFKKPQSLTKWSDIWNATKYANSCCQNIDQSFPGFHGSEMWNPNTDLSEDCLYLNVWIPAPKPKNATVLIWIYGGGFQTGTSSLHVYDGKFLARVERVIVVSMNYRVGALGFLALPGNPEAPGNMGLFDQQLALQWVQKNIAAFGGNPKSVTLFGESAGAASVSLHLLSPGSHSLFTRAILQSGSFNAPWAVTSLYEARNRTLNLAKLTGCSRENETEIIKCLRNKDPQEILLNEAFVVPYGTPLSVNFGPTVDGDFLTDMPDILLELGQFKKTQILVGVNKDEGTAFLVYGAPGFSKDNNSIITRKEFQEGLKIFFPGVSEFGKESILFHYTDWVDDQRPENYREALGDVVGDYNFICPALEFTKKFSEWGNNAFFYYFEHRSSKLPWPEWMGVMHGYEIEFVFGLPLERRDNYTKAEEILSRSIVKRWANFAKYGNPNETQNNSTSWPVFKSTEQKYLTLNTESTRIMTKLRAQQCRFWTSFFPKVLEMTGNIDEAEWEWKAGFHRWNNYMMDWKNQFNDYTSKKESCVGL

| SMILES | Metabolic activity of A549 cells (in words) (A549 cells [3]) | IC50 (A549 cells [3]; [5]) [µM] | IC50 (A549 cells [3]; [6]) [µM] | IC50 (hBChE (human plasma)) [µM] | IC50 (human recombinant AChE) [µM] | Papp (in vitro) [×10⁻⁶ cm/s] | CNS Predicted Availability (in vitro) | also measured |
| --- | --- | --- | --- | --- | --- | --- | --- | --- |
| O=c1[nH]cc(F)c(=O)[nH]1 [5-fluorouracil] | – | – | – | – | – | – | – | IC50 (A549 cancer cell line): 36.3 µM; IC50 [1]: 25.1 µM |
| COC(=O)Cc1cc(=O)oc2cc(OCCCN3CCN(CCNC(=O)Cc4cc(=O)oc5cc(O)ccc45)CC3)ccc12 [12a] | did not lose the ability to convert dye | > 100 | > 100 | > 500 | > 500 | 1.53 ± 0.64 | CNS− (CNS−: low BBB permeation predicted with Pe (×10^−6 cm s^−1) < 2.0) | Number of proliferating cells (Ki67 index), in words (A549 cells [2]): no significant changes; IC50 ± S.E.M. hBChE (hBChE (human plasma)): did not show inhibitory activity; IC50 ± S.E.M. hAChE (human recombinant AChE): did not show inhibitory activity |
| COC(=O)Cc1cc(=O)oc2cc(OCCCCN3CCN(CCNC(=O)Cc4cc(=O)oc5cc(O)ccc45)CC3)ccc12 [12b] | did not lose the ability to convert dye | > 100 | > 100 | > 500 | > 500 | – | CNS− (CNS−: low BBB permeation predicted with Pe (×10^−6 cm s^−1) < 2.0) | IC50 ± S.E.M. hBChE (hBChE (human plasma)): did not show inhibitory activity; IC50 ± S.E.M. hAChE (human recombinant AChE): did not show inhibitory activity |
| COC(=O)Cc1cc(=O)oc2cc(OCCCCCCN3CCN(CCNC(=O)Cc4cc(=O)oc5cc(O)ccc45)CC3)ccc12 [12c, Methyl 2-[7-({7-[4-(2-{[2-(7-hydroxy-2-oxo-2H-4-chromenyl)acetyl]amino}ethyl)piperazino]hexyl}oxy)-2-oxo-2H-4-chromenyl]acetate] | did not lose the ability to convert dye | > 100 | > 100 | > 500 | 88.4 ± 12.6 | 2.96 ± 0.73 | CNS+/− (CNS +/−: BBB permeation uncertain with Pe (×10^−6 cm s^−1) from 4.0 to 2) | Pe ± S.E.M. (in vitro): 2.0–4.0 10^−6 cm s^−1; Cell cycle distribution, G0/G1 phase (in words) (A549 cells [4]): increased the accumulation of cell population in the G0/G1 phase |
| COC(=O)Cc1cc(=O)oc2cc(OCCCCCCCN3CCN(CCNC(=O)Cc4cc(=O)oc5cc(O)ccc45)CC3)ccc12 [12d] | significant decrease | 94 | 58 | 49 | 6.3 ± 0.4 | 2.11 ± 1.19 | CNS+/− (CNS +/−: BBB permeation uncertain with Pe (×10^−6 cm s^−1) from 4.0 to 2) | Pe ± S.E.M. (in vitro): 2.0–4.0 10^−6 cm s^−1; Cell cycle distribution, G0/G1 phase (in words) (A549 cells [4]): increase in the percentage of the cell population in the G0/G1 phase; Metabolic activity of CCD-18Co cells (in words) (CCD-18Co fibroblasts; 24 or 48 h): significantly reduced metabolic activity only at a concentration of 100 μM; IC50 (CCD-18Co fibroblasts; 24 h, read-out: IC50 CCD-18Co 24 h): > 100 µM; IC50 (CCD-18Co fibroblasts; read-out: IC50 CCD-18Co 48 h, 48 h): > 100 µM; IC50 (CCD-18Co fibroblasts; time not stated, read-out: IC50 CCD-18Co): > 100 µM |
| CNC(=C[N+](=O)[O-])NCCSCc1ccc(CN(C)C)o1 [Ranitidine, reference compound] | – | – | – | – | – | – | CNS− (CNS−: low BBB permeation predicted with Pe (×10^−6 cm s^−1) < 2.0) | – |
| Nc1c2c(nc3ccccc13)CCCC2 [Tacrine, tacrine, reference compound] | – | – | – | – | – | – | CNS+ (CNS+: high BBB permeation predicted with Pe (×10^−6 cm s^−1) > 4.0) | – |
| N.N.[Cl][Pt][Cl] [cisplatin] | – | – | – | – | – | – | – | IC50 (A549 cancer cell line): 13.5 µM; IC50 [1]: 9.68 µM |
